# According to patent US8512941B2, “Biological material and methods and solutions for preservation thereof” (Core Dynamics Limited, priority 2004, dated 2013):
# “And” between values parts separate entries of the source, which are not always exact repeats. Identical values can stand only once.
# How the values were obtained:
# Type in all cases: cell-based
# [1] = system: Red blood cells (RBC); test: Freezing RBC without thermal gradients at varying NaCl concentrations; conditions: for Cell Number, Thawed / MCV, Thawed: 24 h at −80° C.
# Protocol: Samples volume was 1 ml. The Samples were maintained for at least 10 min at 5° C. and then transferred to a metal plate in a conventional freezing device (Forma, USA) at −80° C. for a period of 24 h. […] The percentage shown, is the thawed samples as compared with a fresh sample.
# [2] = system: Red blood cells (RBC); test: Post-thaw RBC hemolysis (cyanmethemoglobin assay, Drabkin's solution, Formula I); conditions: 4.12 mM EGCG in 20% (w/v) Dextran 40, 0.8% NaCl; 1890° C./min; 24 hours at −80° C.
# Protocol: In the following Examples, unless specifically said otherwise, free hemoglobin levels detection was done by using the cyanmethemoglubin assay using Drabkin's solution (Sigma, USA) and reading the absorbance at 540 nm using an ELISA reader (Bio Tek Instruments, USA). Hemoglobin (Hb) concentration was measured in the supernatant and in the pellet, and the hemolysis percentage was calculated using Formula I: […]
# Freezing solution was mixed in a 1:1 ration with packed red blood cells.
# RBC were frozen at a volume of 2.5 ml in a 16 mm diameter test tube (Manara, Israel) using the MTG freezing device. […] The test tubes were rotated during freezing at 60 rounds per minute. After freezing, samples were stored for 24 hours in a −80° C. freezer (Forma, USA). Thawing was performed by plunging the samples in a water bath at 37° C. for a period of time under a minute, when the samples visually appears to have been completely thawed.
# Samples were rotated at 60 RPM.
# [3] = system: Red blood cells (RBC); test: Hypothermic preservation of whole blood at 4° C.: cell count, MCV, ATP bioluminescence; conditions: on arrival, 15 minutes after adding, 1 week later, versus PBS bag
# Protocol: Whole blood units, 2 days old, 500 ml each, were received from the Israeli blood services. 2 ml PBS were added to one bag and 2 ml PBS comprising 0.236 gram GTE (Taiyo, China) were added to the other. This GTE contains ˜80% catechins which contained the at least the following polyphenols: 48% EGCG, 10.8% epigallocatechin (EGC), 1.4% DL-Catechin (DL-C; (2S,3R)-2-(3,4-Dihydroxyphenol)-3,4-dihydro-1(2H)-benzopyran-3,5,7-triol), 5.6% epicatechin (EC). 2.6% gallocatechin gallate (GCG) and 14.5% epicatechin gallate (ECG). The final concentration of GTE was 0.4725 mg/ml. During delivery and storage the blood was maintained in a refrigerator at 4° C. storage.
# 1 ml samples were taken from each bag at the following times: (a) when the units arrived, (b) 15 minutes after adding PBS of EGCG and (c) 1 week later. The samples were counted and the mean cell value was measured using the Pentra 60 (ABX, France).
# ATP content of each sample was assayed using ATP Bioluminescence Kit CLS II (Roche, Switzerland) according to the manufacturer's manual. In this assay, light emission is in direct proportion to the amount of ATP in the sample.
# [4] = system: Red blood cells (RBC); test: RBC survival (cell count) after freezing/thawing or lyophilizing/rehydrating at 2.5 ml
# Protocol: Red blood cells (RBC) were separated from whole blood received from the Israeli Blood Bank. The blood was centrifuged for 10 minutes at 1500 g and the plasma was discarded. […] Afterwards the supernatant was discarded, and an equal volume of cryopreservation solution selected from the solutions in Table I was added to the packed RBC. Different volumes (2.5-50 ml) of the RBC suspension were transferred to a 16-25 mm diameter glass test tube ([…], Israel). The experiment of freezing 200 ml of RBC suspension was done in a 2000 ml freezing bag (Baxter-Fenwal, USA). Samples were then either frozen and thawed in a water bath at 37° C. or lyophilized and rehydrated with double distilled water (DDW) at 37° C. Glass test tubes containing RBC were frozen in a modified MTG freezing apparatus, as described in WO 03/020874 (manufactured by IMT, Israel). The thermal gradient in the cooling unit was set to 5.5° C./mm or 10.5° C./mm or 15.5° C./mm (as detailed below) with final temperatures of -50° C., -100° C. or -150° C. […] During freezing the test tubes that contained only 2.5 ml samples were rotated at a rate of 56 rpm. Subsequent to freezing, biological material was taken from each test tube to test for cell viability. Lyophilization was performed in a commercial lyophilizer (Labconco, USA) with a condenser temperature of -82° C. for 72 hours. The biological material was is rehydrated by adding DDW to reach the sample's original volume. Frozen (but not lyophilized) material was thawed by immersion in a water bath at 37° C. for until it melted. Melting was observed visually. Cells were counted using the […] 60 cell counter (ABX, France), in accordance with the manufacturer's manual. This device provides a complete cell count (CBC) that includes parameters such as: cell number, hematocrit, mean cell volume, hemoglobin, etc. […] In these experiments the cell suspension volume was 2.5 ml.
# [5] = system: Red blood cells (RBC); test: Freeze-dried and rehydrated RBC: cell number, MCV, hemolysis; conditions: for % Hemolysis in Lyo cells / MCV, Lyo / number of Cells, Lyo: lyophilized and rehydrated
# Protocol: Freezing was performed as described in Example 5A. After freezing, samples were transferred to a commercial lyophilizer (Labconco, USA). Samples were lyophilized for 72 hours, after which rehydration was performed by adding 2.4 ml double distilled water at 37° C. back to the samples. After rehydration samples were counted and mean cell volume (MCV) was measured using the Pentra 60 (ABX, France) automatic cell counter. Free hemoglobin levels were measured as described above and the hemolysis percentage was calculated using Formula I.
# [6] = system: Red blood cells (RBC); test: Osmotic fragility of RBC; conditions: 0.9 mg/ml EGCG, 20% dextran 40 kD, 0.8% NaCl
# Protocol: The control group was whole blood. Portions of each of the EGCG supplemented and control were exposed to different sodium chloride concentrations of: 0.1, 0.2, 0.3, 0.4, 0.5, 0.6, 0.7, 0.8 and 0.9% (w/v).
# Free hemoglobin was measured as described above and the hemolysis percentage was calculated using Formula I. The results of this experiment are shown in FIG. 8.
# [7] = system: Mononuclear cells (MNC) derived from umbilical cord blood (UCB); test: MNC viability by membrane integrity (SYBR14/PI) after freeze thawing or freeze drying; conditions: for Mambrane integrity (%): 0.1M Trehalose in PBS
# Protocol: Blood was separated on ficoll-paque gradient for 30 minutes at 1000 g. Afterwards the mononuclear layer was drawn out and washed twice in PBS for 10 minutes at 200 g. To each pellet one of the following freezing solutions was added:
# 2.5 ml of cell suspension were put in a 16 mm diameter glass test tube (Manara, Israel) and frozen using the MTG freezing apparatus (IMT, Israel). The temperature gradients were 1.5° C./mm and 0.428° C./mm, velocity was 0.2 mm/sec resulting in a cooling rate of 18° C./min and 5.1° C./min respectively. The first cooling rate was applied until the seeding temperature was reached. The samples were rotated at 56 rounds per minute (RPM).
# After freezing samples were plunged into liquid nitrogen (LN), and then samples were either thawed at 37° C. in a water bath or put in a commercial lyophilizer (Labconco, USA) with a condenser temperature of −80° C. After drying the cells were rehydrated with DDW at 37° C.
# Cells were counted using the PENTRA 60 cell counter, as described above. viability assessments were performed by evaluating the cells' membrane integrity using SYBR14 plus Propidium Iodide (PI) (Molecular Probes, USA) live/dead fluorescent staining. These stains are nucleic acid stains, SYBR14 is a membrane permeable molecule and PI can enter the cell only if the membrane is damaged.
# (§1) C. In this example a freezing solution composed of 0.1M Trehalose and either 0.47 mg/ml EGCG (×2.5) or 1.89 mg/ml EGCG (×10) in PBS was used. Samples volume was 2.5 ml and samples were frozen as described above and then lyophilized. After being in the lyophilizer for 72 h, the samples were taken out and rehydrated with 2.4 ml of DDW at 37° C. After rehydration samples were assayed for CD3 using FACS (fluorescent-activated cell sorter) in accordance with the method described in Huiling et al. The Journal of Immunology 2003, 171: 4824-4829, with minor modifications.
# Membrane integrity of the samples was evaluated before and after rehydration using SYBR 14 and PI (Molecular Probes, USA).
# [8] = system: Mononuclear cells (MNC) derived from umbilical cord blood (UCB); test: CD3 expression by FACS of lyophilized, rehydrated MNC; conditions: 0.1M Trehalose in PBS
# Protocol: as §1
# [9] = system: Mononuclear cells (MNC) derived from umbilical cord blood (UCB); test: MNC proliferation assay based on thymidine incorporation; conditions: FIG. 9; cells lyophilized at ×10 EGCG (4.12 mM) versus ×2.5 EGCG (1.03 mM); 48 hour incubation
# Protocol: In addition, a cell proliferation assay was performed. In brief, the hydrated cells were incubated for 48 hour after which a proliferation assay based on thymidine incorporation was carried out (Promega, USA). The results of the proliferation assay are depicted in FIG. 9, wherein the proliferation index of the cells is depicted as a function of their number at initial plating. […] In addition, as the cells' initial plating number increases so does the proliferation index. The almost linear proportion shown for one of the ×10 EGCG samples is similar to that observed with fresh cells
structure (smiles),measurement,setting,value
"O=C(O[C@@H]1Cc2c(O)cc(O)cc2O[C@@H]1c1cc(O)c(O)c(O)c1)c1cc(O)c(O)c(O)c1 [EGCG, Epigallocatechin gallate]","Cell Number, % thawed compared with fresh",[1]; NaCl 0.6%,100.00%
same,"MCV, % thawed compared with fresh",[1]; NaCl 0.6%,120.22%
same,"Cell Number, Thawed",[1]; NaCl 0.6%,4.12 10^9/ml
same,"MCV, Thawed",[1]; NaCl 0.6%,107 μm^3
same,"Cell Number, Fresh",[1]; NaCl 0.6%,4.12 10^9/ml
same,"Cell Number, % thawed compared with fresh",[1]; NaCl 0.7%,100.00%
same,"MCV, % thawed compared with fresh",[1]; NaCl 0.7%,124.44%
same,"Cell Number, Thawed",[1]; NaCl 0.7%,4.27 10^9/ml
same,"MCV, Thawed",[1]; NaCl 0.7%,112 μm^3
same,"Cell Number, Fresh",[1]; NaCl 0.7%,4.27 10^9/ml
same,"Cell Number, % thawed compared with fresh",[1]; NaCl 0.8%,100.00%
same,"MCV, % thawed compared with fresh",[1]; NaCl 0.8%,118.89%
same,"Cell Number, Thawed",[1]; NaCl 0.8%,4.71 10^9/ml
same,"MCV, Thawed",[1]; NaCl 0.8%,107 μm^3
same,"Cell Number, Fresh",[1]; NaCl 0.8%,4.71 10^9/ml
same,"Cell Number, % thawed compared with fresh",[1]; NaCl 0.9% (Saline),75.50%
same,"MCV, % thawed compared with fresh",[1]; NaCl 0.9% (Saline),101.11%
same,"Cell Number, Thawed",[1]; NaCl 0.9% (Saline),3.42 10^9/ml
same,"MCV, Thawed",[1]; NaCl 0.9% (Saline),91 μm^3
same,"Cell Number, Fresh",[1]; NaCl 0.9% (Saline),4.53 10^9/ml
same,Post thaw hemolysis,[2],3.5%
same,Cells counts,[3],essentially the same
same,MCV,[3],essentially the same
same,"RBC survival, 1B Rehydrated","[4]; frozen at 1,000° C./min, lyophilized, rehydrated with DDW",49.19%
same,"RBC survival, 1A Thawed","[4]; frozen at 1,000° C./min, thawed, not lyophilized, percentage of total fresh cells counted",84.53%
same,"RBC survival, 2A Thawed","[4]; frozen at 2,000° C./min, thawed, not lyophilized",72.92%
same,"MCV, % of lyo from fresh",[5]; 1.03 mM EGCG,85.23%
same,"number of Cells, % of lyo cells from fresh",[5]; 1.03 mM EGCG,67.22%
same,"number of Cells, Fresh","[5]; 1.03 mM EGCG in 20% Dextran 40, 0.8% NaCl",4.21 10^9/ml
same,"MCV, Fresh",[5]; 1.03 mM EGCG,88 μm^3
same,% Hemolysis in Lyo cells,[5]; 1.03 mM EGCG,56.18%
same,"MCV, Lyo",[5]; 1.03 mM EGCG,75 μm^3
same,"number of Cells, Lyo",[5]; 1.03 mM EGCG,2.83 10^9/ml
same,"MCV, % of lyo from fresh",[5]; 4.12 mM EGCG,96.59%
same,"number of Cells, % of lyo cells from fresh",[5]; 4.12 mM EGCG,63.32%
same,"number of Cells, Fresh","[5]; 4.12 mM EGCG in 20% Dextran 40, 0.8% NaCl",4.58 10^9/ml
same,"MCV, Fresh",[5]; 4.12 mM EGCG,88 μm^3
same,% Hemolysis in Lyo cells,[5]; 4.12 mM EGCG,51.8%
same,"MCV, Lyo",[5]; 4.12 mM EGCG,85 μm^3
same,"number of Cells, Lyo",[5]; 4.12 mM EGCG,2.9 10^9/ml
same,hemolysis versus control (whole blood),[6]; NaCl concentrations above 0.6% (w/v),no significant difference
same,hemolysis versus control (whole blood),[6]; hypotonic environment (below 0.5% NaCl),lower hemolysis rates
same,"viability, effect of EGCG concentration","[7]; FIG. 7, 0.412, 1.03, 2.06, 4.12 mM EGCG with 0.1M trehalose in PBS, after freeze thawing and after freeze drying",viability increased with EGCG concentration
same,Mambrane integrity (%),[7]; Fresh with 0.47 mg/ml EGCG,97.36 ± 2.2%
same,Mambrane integrity (%),[7]; Fresh with 1.89 mg/ml EGCG,90.01 ± 4.3%
same,Mambrane integrity (%),"[7]; Lyophilized with 0.47 mg/ml EGCG, rehydrated",55.1 ± 8.5% and 59.8 ± 1.4%
same,Mambrane integrity (%),"[7]; Lyophilized with 1.89 mg/ml EGCG, rehydrated",79.31 ± 8.8% and 83.62 ± 5.7% and 88.4 ± 3.2% and 88.03 ± 5.6%
same,CD3 (%),[8]; Lyophilized with 0.47 mg/ml EGCG,80%
same,CD3 (%),[8]; Lyophilized with 1.89 mg/ml EGCG,81% and 83% and 82% and 78%
same,proliferation index,[9],higher proliferation index
